From ChEMBL document CHEMBL4406882, “The plant-derived chalcone Xanthoangelol targets the membrane of Gram-positive bacteria” (Bioorg Med Chem, 2019) come the findings set out here.

Active and inactive are the calls of the source. The rule behind the calls is not given here.

Experiment [1] deals with Staphylococcus aureus. As to the kind of experiment: Induction of membrane integrity impairment in methicillin-resistant Staphylococcus aureus ATCC 700699 at 20 uM measured for 30 mins by DiOC2(3) probe based fluorescence assay. In kind it is functional, organism-based.
Experiment [2] concerns Staphylococcus aureus. As to the kind of experiment: Induction of membrane integrity impairment in methicillin-resistant Staphylococcus aureus ATCC 700699 at 10 uM measured for 3 hrs by PI staining based fluorescence assay. In kind it is functional, organism-based.
Experiment [3] concerns Staphylococcus aureus. As to the kind of experiment: Bactericidal activity against methicillin-resistant Staphylococcus aureus ATCC 700699 assessed as reduction in bacterial CFU at 4 times MIC measured for 30 mins. In kind it is functional.
The subject of experiment [4] is Staphylococcus aureus. As to the kind of experiment: Antibacterial activity against mid-exponential growth phase of methicillin-resistant Staphylococcus aureus ATCC 700699 assessed as increase in cell lysis at 25 uM. Format: functional, organism-based.
Experiment [5] has as its system Staphylococcus aureus. Nature of the experiment: Induction of membrane integrity impairment in methicillin-resistant Staphylococcus aureus ATCC 700699 at 3.125 to 12.5 uM measured for 30 mins by DiOC2(3) probe based fluorescence assay. In kind it is functional, organism-based.

In the case of `COc1c(N2C[C@@H]3CCCN[C@@H]3C2)c(F)cc2c(=O)c(C(=O)O)cn(C3CC3)c12`, the outcome in experiment [1], in experiment [2], in experiment [3] and in experiment [4] was inactive.
Turning to `N#CC(C#N)=NNc1cccc(Cl)c1`, the outcome in experiment [5] was Active.
